The record followed here is publication PMC7504387, “Antimicrobial and Amyloidogenic Activity of Peptides Synthesized on the Basis of the Ribosomal S1 Protein from Thermus Thermophilus” (International Journal of Molecular Sciences, 2020).

The structures appear in SMILES notation. Values after ≈ are worked out from the molar mass of the structure shown. Where a SMILES comes first, the peptide text is derived from it. Where only a bound is given, the exact number is not on record here.

Series [1] is described as follows: Transmission electron microscopy of peptide preparations. Particulars: peptide alone, negative staining, TEM. Format: physicochemical. The method, then:
(§1) The presence of amyloid fibrils in the test samples was monitored by transmission electron microscopy (TEM). End-point solutions of peptides were collected and the samples were dissolved in the same solution to 0.2 mg/mL before studying with electron microscopy. A formvar-coated copper grid 400 mesh (Electron Microscopy Sciences, Hatfield, PA, USA) was placed on a 10 μL sample. After 5 min absorption, the grids with the preparation were negatively stained for 1.5–2.0 min with 1% (weight/volume) aqueous solution of uranyl acetate. The excess of the staining agent was removed with filter paper. The preparations were analyzed using a JEM-100C (Jeol, Tokyo, Japan) transmission electron microscope at the accelerating voltage of 80 kV. Images were recorded on the Kodak electron image film (SO-163) at nominal magnification of 40,000–60,000.

The nature of series [2]: Thioflavine T fluorescence assay of peptide aggregation. Particulars: peptide alone, ThT 0.2 mM, 37 °C. Format: physicochemical. Here is the method:
Fibrils growth was monitored by thioflavine T (ThT) (Sigma-Aldrich, St. Louis, MO, USA) fluorescence. The kinetics of aggregation of peptides was studied using the method of fluorescence spectroscopy. Each kinetics graph was plotted based on the average of several results measured at different time intervals. To facilitate dissolution, all the samples of peptides were pre-dissolved in 100% DMSO, then buffers 50 mM Tris-HCl, pH 7.5, 150 mM NaCl or 20% acetic acid pH 2.0, 150 mM NaCl were added (1% final concentration DMSO) and filtered through […] membranes to remove small aggregates. ThT is the most commonly used fluorescent dye for the following amyloid formation semi-quantitatively in vitro. Free ThT has excitation and emission maxima at ∼350 and ∼450 nm, respectively (after binding to fibrils, the excitation and emission λmax change to ∼450 and ∼482–485 nm, respectively). A stock solution of ThT was prepared at a concentration of 20 mM in 50 mM Tris-HCl, pH 7.5, 150 mM NaCl or 20% acetic acid pH 2.0, 150 mM NaCl, respectively and stored at 4 °C protected from light. The final concentration of ThT was 0.2 mM, and each peptide was 0.2 mM. ThT was present in the sample during the fibril formation reaction. Measurements of ThT fluorescence were performed on a Cary Eclipse fluorescence spectrophotometer (Varian, Mulgrave, Australia) in quartz cells 3 × 3 mm at 37 °C.

For another series, the system named is T. thermophilus cells. As to the kind of experiment: Electron microscopy of intact and peptide-treated T. thermophilus cells. It is filed as cell-based. Here is the method:
Along with the spectrophotometric method for determining the antimicrobial activity of peptides, the viability of cells was evaluated using electron microscopy. […] At the given peptide concentration, cells with a typical morphology and flagella were often found. Many protein aggregates were also observed. The absence of an antimicrobial effect with an increase in the concentration of the peptide to 1000 μg/mL, consistent with the spectrophotometry data of the antimicrobial activity of peptides (Figure 3).
as §1

For series [3], the system named is ribosomal S1 protein from T. thermophilus. Put plainly: Electron microscopy, coaggregation of peptide with S1 protein. The method, then: as §1
In series [4] the test system is T. thermophilus cell culture. It is filed as cell-based. Here is the method:
UV-Vis spectra were recorded using a spectrophotometr SF-102 (Akvilon, Moscow, Russia). At the end of the incubation, the density of the medium was estimated by spectrophotometry in a cuvette 10 mm with a total volume of 100 μL. The cuvettes were filled with the peptide water solutions and spectra were collected, using a wavelength from 600 nm. Biological activity of peptides was evaluated by their minimum concentration, which that may inhibit the growth of T. thermophilus bacteria culture. Biological activity of peptides was counted by using the following equation: (1) E=1−A (sample with peptide)/A (sample without peptide), where E is a biological activity of peptides, A is an optical absorption after 24 h incubation with and without peptide.
To construct a dose-effect curve and estimate the quantitative parameters of the curves, the statistical environment R and the drc package were used. The choice of model for describing the functional dependence was determined by several parameters: the logarithm of the maximum value of the likelihood function (logLik), the Akaike information criterion (IC), and the residual variance (Res var).
The algorithm for evaluating antimicrobial activity includes the study of this process and the dose–response relationship. The reaction of a biological object determines a quantitative assessment of the antimicrobial effect, depending not only on the concentration of the peptide, but also on the time of its action. Almost any impact begins with a certain threshold. An important final result of the experiment is the assessment of this threshold—the minimum inhibitory concentration (MIC) at which peptide influence is observed.

As to `CC[C@H](C)[C@H](NC(=O)[C@H](CCC(=O)O)NC(=O)[C@@H](NC(=O)[C@H](Cc1ccccc1)NC(=O)[C@@H](NC(=O)CNC(=O)[C@H](Cc1ccccc1)NC(=O)[C@H](CC(=O)O)NC(=O)[C@@H](NC(=O)[C@@H](NC(=O)CNC(=O)CN(C)C(=O)CNC(=O)CNC(=O)[C@H](CCCNC(=N)N)NC(=O)[C@H](CCCNC(=N)N)NC(=O)[C@H](CCCNC(=N)N)NC(=O)[C@H](CCC(N)=O)NC(=O)[C@H](CCCNC(=N)N)NC(=O)[C@H](CCCNC(=N)N)NC(=O)[C@H](CCCCN)NC(=O)[C@H](CCCCN)NC(=O)[C@@H](N)CCCNC(=N)N)C(C)C)[C@@H](C)O)C(C)C)C(C)C)C(=O)O` [R23I] (HELM PEPTIDE1{R.K.K.R.R.Q.R.R.R.G.G.[Sar].G.V.T.D.F.G.V.F.V.E.I}$$$$V2.0; N-terminus and C-terminus assumed), the “aggregate/fibril morphology according to electron microscopy” value in series [1] was “aggregates of different sizes and complexes of aggregates are present”. Besides, the “amyloids in peptide preparation according to ThT fluorescence” value in series [2] is listed as “absence of R23I amyloids”. Besides, the “cell morphology by electron microscopy” value is recorded as “whole cells were practically absent” in the series on T. thermophilus cells (peptide 50 μg/mL), “the number of cells decreased” in the series on T. thermophilus cells (peptide 100 μg/mL) and “did not lead to the morphological changes compared with the control” in the series on T. thermophilus cells (peptide 1000 μg/mL). Further, the “morphology of peptide/S1 protein mixture by electron microscopy” value in series [3] (peptide:S1 protein ratio 1:1) is “both the protein aggregates and fibrils were observed”; in series [3] (peptide:S1 protein ratio 5:1 (S1:peptide = 1:5)), “both the protein aggregates and fibrils were observed”. Besides, in series [4] (50 μg/mL in medium, OD 600 nm versus sampling time, DMSO control reached 0.8), the “change of optical density of T. thermophilus culture over time” value is recorded as “no increase in the optical density”. The “minimal inhibitory concentration (MIC)” value in series [4] (T. thermophilus culture, optical absorption at 600 nm after 24 h incubation, 5 repeats for R23I, 2 for R23T and V10I) stood at 50 µg/mL (≈ 18.6 µM). Besides, the “concentration at which a pronounced antibacterial effect is observed (no activity below)” value in series [4] (T. thermophilus culture, additional concentrations 0.5-250 μg/mL tested) came out at 40 µg/mL. Further, in series [4] (culture medium, OD 600 nm), the “concentration leading to formation of aggregates in solution and increase in optical density” value was at least 500 µg/mL.
